According to patent publication US20230103631A1, “PEPTIDES AS SELECTIVE GIP RECEPTOR AGONISTS” (Sanofi, priority 2020, published 2023):
*1 amine or outer side, *2 acyl side, *3 side chain or, on linkers, in order; H or OH if unused. Where a SMILES comes first, the peptide text is derived from it. Side-chain parts run from the residue outwards. [ ]: non-standard residue; d: D form. The star is where a group is joined. C18 diacid = O=C(O)CCCCCCCCCCCCCCCCC(=O)*; γGlu = O=C(O)[C@H](CCC(=O)[*:2])N[*:1]; NMeY = CN[C@@H](Cc1ccc(O)cc1)C(=O)O; AEEA = NCCOCCOCC(=O)O; Aib = CC(C)(N)C(=O)O; Sar = CNCC(=O)O

Columns and labels:
[1] = Pharmacokinetic evaluation in rats; assay type: in vivo; details: male, SD, rat, plasma
Procedure: Compounds were administered in a suitable buffer system, e.g. PBS buffer solution at pH7.4 or DPBS solution at concentrations of 0.05, 0.1, 0.5 or 1 mg/ml depending on dose, species and administration volume.
Male SD rats were dosed 0.25 mg/kg, 0.5 mg/kg or 1 mg/kg intravenously (i.v.) or subcutaneously (s.c.). Blood samples were collected after 0.08, 0.25, 0.5, 1, 2, 4, 8, 24, 32, and 48 h post i.v. application and 0.25, 0.5, 1, 2, 4, 8, 24, 32, and 48 h post s.c. application, respectively. Plasma samples were analyzed after protein precipitation via liquid chromatography mass spectrometry (LC/MS). PK parameters and half-life were calculated using Phoenix-WinNonlin 8.1 using a non-compartmental model and linear trapezoidal interpolation calculation.
Pharmacokinetic profiles were determined as described in Methods.

[2] = ThT assay for the assessment of physical stability; assay type: physicochemical; details: ThT buffer system A: 100 mM phosphate buffer pH 7.4; 3 mg/ml, 37° C.
Text: Low physical stability of a peptide solution may lead to amyloid fibril formation, which is observed as well-ordered, thread-like macromolecular structures in the sample, which eventually may lead to gel formation. Thioflavin T (ThT) is widely used to visualize and quantify the presence of misfolded protein aggregates [Biancalana et al., Biochim. Biophys. Acta 2010, 1804(7), 1405]. […] Enzymol. 1999, 309, 274]. The time course for fibril formation often follows the characteristic shape of a sigmoidal curve and can be separated into three regions: a lag phase, a fast growth phase, and a plateau phase.
The typical fibril formation process starts with the lag phase in which the amount of partially folded peptide turned into fibrils is not significant enough to be detected. The lag-time corresponds to the time the critical mass of the nucleus is built. Afterwards, a drastic elongation phase follows, and fibril concentration increases rapidly.
Investigations were carried out to determine fibrillation tendencies under stress conditions by shaking at 37° C. within Fluoroskan Ascent FL or Fluoroskan Ascent.
For the tests in Fluoroskan Ascent (FL), 200 μl sample were placed into a 96-well mictrotiter plate PS, flat bottom, Greiner Fluotrac No. 655076. Plates were sealed with Scotch Tape (Qiagen). Samples were stressed by continuous cycles of 10 sec shaking at 960 rpm and 50 sec rest period at 37° C. The kinetic was monitored by measuring fluorescence intensity every 20 min.
Peptides were diluted in a buffer system to a final concentration of 3 mg/ml. 20 μl of a 10.1 mM ThT solution in H2O were added to 2 ml of peptide solution to receive a final concentration of 100 μM ThT. For each sample eight replicates were tested.
ThT buffer system A) 100 mM phosphate buffer pH 7.4
ThT buffer system B) 100 mM phosphate buffer pH 7.4, 2.7 mg/ml m-cresol
Lag time in hours (h) in Thioflavin T (ThT) assay of peptide samples was determined in ThT buffer system A as described in Methods.

CC[C@H](C)[C@H](NC(=O)[C@H](CCCNC(=N)N)NC(=O)[C@H](CC(=O)O)NC(=O)[C@H](CCCCNC(=O)COCCOCCNC(=O)COCCOCCNC(=O)CC[C@H](NC(=O)CCCCCCCCCCCCCCCCC(=O)O)C(=O)O)NC(=O)C(C)(C)NC(=O)[C@@H](NC(=O)[C@H](CO)NC(=O)[C@H](CC(C)C)NC(=O)[C@H](CC(=O)O)NC(=O)[C@H](CO)NC(=O)[C@@H](NC(=O)[C@H](Cc1ccccc1)NC(=O)[C@@H](NC(=O)CNC(=O)[C@H](CCC(=O)O)NC(=O)C(C)(C)NC(=O)[C@@H](N)Cc1ccc(O)cc1)[C@@H](C)O)[C@@H](C)CC)[C@@H](C)CC)C(=O)N[C@@H](Cc1c[nH]cn1)C(=O)N[C@@H](CCC(N)=O)C(=O)NC(C)(C)C(=O)N[C@@H](CCC(=O)O)C(=O)N[C@@H](Cc1ccccc1)C(=O)N[C@H](C(=O)N[C@@H](CCC(=O)O)C(=O)N[C@@H](Cc1c[nH]c2ccccc12)C(=O)N[C@@H](CC(C)C)C(=O)N[C@@H](CC(C)C)C(=O)N[C@@H](C)C(=O)N[C@@H](CCC(N)=O)C(=O)NCC(=O)N1CCC[C@H]1C(=O)N[C@@H](CO)C(=O)N[C@@H](CO)C(=O)NCC(=O)N[C@@H](C)C(=O)N1CCC[C@H]1C(=O)N1CCC[C@H]1C(=O)N1CCC[C@H]1C(=O)N[C@@H](CO)C(N)=O)[C@@H](C)CC [SEQ ID NO: 4, H2N-Y-Aib-E-G-T-F-I-S-D-I-S-I-Aib-K[{AEEA}2-gGlu-C18OH]-D-R-I-H-Q-Aib-E-F-I-E-W-I-L-A-Q-G-P-S-S-G-A-P-P-P-S-NH2] (H-Y[Aib]EGTFISDLSI[Aib]K([AEEA-AEEA-γGlu-C18 diacid])DRIHQ[Aib]EFIEWLLAQGPSSGAPPPS-NH2)
AUC(0-t) ([1]; iv, 0.25 mg/kg i.v.): 50200 ng·h/mL
Cmax ([1]; iv, 0.25 mg/kg i.v.): 6890 ng/mL
half-life ([1]; iv, 0.25 mg/kg i.v.): 12.3 h
clearance ([1]; iv, 0.25 mg/kg i.v., read-out: CI (converted)): 4.68 mL/h/kg
AUC(0-t) ([1]; sc, 0.5 mg/kg s.c.): 44400 ng·h/mL
Cmax ([1]; sc, 0.5 mg/kg s.c.): 1270 ng/mL
bioavailability ([1]; sc, 0.5 mg/kg s.c.): 52%
half-life ([1]; sc, 0.5 mg/kg s.c.): 16.5 h
Increase in FI [2]: no
Lag time before increase [2]: >45 h

CC[C@H](C)[C@H](NC(=O)[C@H](CCCNC(=N)N)NC(=O)[C@H](CC(=O)O)NC(=O)[C@H](CCCCNC(=O)CNC(=O)CNC(=O)CNC(=O)CC[C@H](NC(=O)CCCCCCCCCCCCCCCCC(=O)O)C(=O)O)NC(=O)C(C)(C)NC(=O)[C@@H](NC(=O)[C@H](CO)NC(=O)[C@H](CC(C)C)NC(=O)[C@H](CC(=O)O)NC(=O)[C@H](CO)NC(=O)[C@@H](NC(=O)[C@H](Cc1ccccc1)NC(=O)[C@@H](NC(=O)CNC(=O)[C@H](CCC(=O)O)NC(=O)C(C)(C)NC(=O)[C@@H](N)Cc1ccc(O)cc1)[C@@H](C)O)[C@@H](C)CC)[C@@H](C)CC)C(=O)N[C@@H](Cc1c[nH]cn1)C(=O)N[C@@H](CCC(N)=O)C(=O)NC(C)(C)C(=O)N[C@@H](CCC(=O)O)C(=O)N[C@@H](Cc1ccccc1)C(=O)N[C@H](C(=O)N[C@@H](CCC(=O)O)C(=O)N[C@@H](Cc1c[nH]c2ccccc12)C(=O)N[C@@H](CC(C)C)C(=O)N[C@@H](CC(C)C)C(=O)N[C@@H](C)C(=O)N[C@@H](CCC(N)=O)C(=O)NCC(=O)N1CCC[C@H]1C(=O)N[C@@H](CO)C(=O)N[C@@H](CO)C(=O)NCC(=O)N[C@@H](C)C(=O)N1CCC[C@H]1C(=O)N1CCC[C@H]1C(=O)N1CCC[C@H]1C(=O)N[C@@H](CO)C(N)=O)[C@@H](C)CC [SEQ ID NO: 5, H2N-Y-Aib-E-G-T-F-I-S-D-I-S-I-Aib-K[{Gly}3-gGlu-C18OH]-D-R-I-H-Q-Aib-E-F-I-E-W-I-L-A-Q-G-P-S-S-G-A-P-P-P-S-NH2] (H-Y[Aib]EGTFISDLSI[Aib]K([Gly-Gly-Gly-γGlu-C18 diacid])DRIHQ[Aib]EFIEWLLAQGPSSGAPPPS-NH2)
Increase in FI [2]: no
Lag time before increase [2]: >45 h

CC[C@H](C)[C@H](NC(=O)[C@H](CCCNC(=N)N)NC(=O)[C@H](CC(=O)O)NC(=O)[C@H](CCCCNC(=O)CN(C)C(=O)CN(C)C(=O)CN(C)C(=O)CC[C@H](NC(=O)CCCCCCCCCCCCCCCCC(=O)O)C(=O)O)NC(=O)C(C)(C)NC(=O)[C@@H](NC(=O)[C@H](CO)NC(=O)[C@H](CC(C)C)NC(=O)[C@H](CC(=O)O)NC(=O)[C@H](CO)NC(=O)[C@@H](NC(=O)[C@H](Cc1ccccc1)NC(=O)[C@@H](NC(=O)CNC(=O)[C@H](CCC(=O)O)NC(=O)C(C)(C)NC(=O)[C@@H](N)Cc1ccc(O)cc1)[C@@H](C)O)[C@@H](C)CC)[C@@H](C)CC)C(=O)N[C@@H](Cc1c[nH]cn1)C(=O)N[C@@H](CCC(N)=O)C(=O)NC(C)(C)C(=O)N[C@@H](CCC(=O)O)C(=O)N[C@@H](Cc1ccccc1)C(=O)N[C@H](C(=O)N[C@@H](CCC(=O)O)C(=O)N[C@@H](Cc1c[nH]c2ccccc12)C(=O)N[C@@H](CC(C)C)C(=O)N[C@@H](CC(C)C)C(=O)N[C@@H](C)C(=O)N[C@@H](CCC(N)=O)C(=O)NCC(=O)N1CCC[C@H]1C(=O)N[C@@H](CO)C(=O)N[C@@H](CO)C(=O)NCC(=O)N[C@@H](C)C(=O)N1CCC[C@H]1C(=O)N1CCC[C@H]1C(=O)N1CCC[C@H]1C(=O)N[C@@H](CO)C(N)=O)[C@@H](C)CC [SEQ ID NO: 6, H2N-Y-Aib-E-G-T-F-I-S-D-I-S-I-Aib-K[{N-MeGly}3-gGlu-C18OH]-D-R-I-H-Q-Aib-E-F-I-E-W-I-L-A-Q-G-P-S-S-G-A-P-P-P-S-NH2] (H-Y[Aib]EGTFISDLSI[Aib]K([Sar-Sar-Sar-γGlu-C18 diacid])DRIHQ[Aib]EFIEWLLAQGPSSGAPPPS-NH2)
Increase in FI [2]: no
Lag time before increase [2]: >45 h

CC[C@H](C)[C@H](NC(=O)[C@H](CCCNC(=N)N)NC(=O)[C@H](CC(=O)O)NC(=O)[C@H](CCCCNC(=O)COCCOCCNC(=O)COCCOCCNC(=O)CC[C@H](NC(=O)CCCCCCCCCCCCCCCCC(=O)O)C(=O)O)NC(=O)C(C)(C)NC(=O)[C@@H](NC(=O)[C@H](CO)NC(=O)[C@H](CC(C)C)NC(=O)[C@H](CC(=O)O)NC(=O)[C@H](CO)NC(=O)[C@@H](NC(=O)[C@H](Cc1ccccc1)NC(=O)[C@@H](NC(=O)CNC(=O)[C@H](CCC(=O)O)NC(=O)C(C)(C)NC(=O)[C@H](Cc1ccc(O)cc1)NC)[C@@H](C)O)[C@@H](C)CC)[C@@H](C)CC)C(=O)N[C@@H](Cc1c[nH]cn1)C(=O)N[C@@H](CCC(N)=O)C(=O)NC(C)(C)C(=O)N[C@@H](CCC(=O)O)C(=O)N[C@@H](Cc1ccccc1)C(=O)N[C@H](C(=O)N[C@@H](CCC(=O)O)C(=O)N[C@@H](Cc1c[nH]c2ccccc12)C(=O)N[C@@H](CC(C)C)C(=O)N[C@@H](CC(C)C)C(=O)N[C@@H](C)C(=O)N[C@@H](CCC(N)=O)C(=O)NCC(=O)N1CCC[C@H]1C(=O)N[C@@H](CO)C(=O)N[C@@H](CO)C(=O)NCC(=O)N[C@@H](C)C(=O)N1CCC[C@H]1C(=O)N1CCC[C@H]1C(=O)N1CCC[C@H]1C(=O)N[C@@H](CO)C(N)=O)[C@@H](C)CC [SEQ ID NO: 8, MeHN-Y-Aib-E-G-T-F-I-S-D-I-S-I-Aib-K[{AEEA}2-gGlu-C180H]-D-R-I-H-Q-Aib-E-F--E-W-I-L-A-Q-G-P-S-S-G-A-P-P-P-S-NH2] (H-[NMeY][Aib]EGTFISDLSI[Aib]K([AEEA-AEEA-γGlu-C18 diacid])DRIHQ[Aib]EFIEWLLAQGPSSGAPPPS-NH2)
Increase in FI [2]: no
Lag time before increase [2]: >45 h
